{
  "source": "patent US20250205201A1",
  "about": "“USE OF L-ERGOTHIONEINE FOR ALLEVIATING AND PREVENTING AGE-RELATED LENS DEGENERATION” (NANJING NUTRABUILDING BIO-TECH CO., LTD., priority 2023, published 2025)",
  "type_in_all_cases": "in vivo, rat (Sprague-Dawley)",
  "key": {"Nrf2": {"system": "Nrf2", "assay": "Nrf2 mRNA level in LECs by real-time PCR after 6 months of supplementation", "details": "FIG. 2", "procedure": "Ten-day-old suckling rats (Sprague-Dawley, SD) were maintained under the barrier conditions in a temperature-controlled environment and fed a commercial mouse chow. All rat pups received a single subcutaneous injection of sodium selenite (20 μmol/kg body weight) on postpartum day 11. The opacity distribution (by surface plot and plot profile) of the rats' lenses were determined from the captured images by ImageJ analysis software after feeding 7 days. Testing opacity distribution aimed to show whether the formation of age-related lens degeneration is successful. The rats were then injected of sodium selenite every two weeks. And then these induced successfully rats were fed a commercial mouse chow for 15 months if succeeding. […]\nNrf2 dependent antioxidant protection system plays a crucial role in scavenging ROS generated during various biochemical reactions. […] Real-time PCR was measured and performed with the following primers: Nrf2 forward 5′-[…]-3′. RNA samples were reverse-transcribed to cDNA and subjected to quantitative PCR, performed with a Light Cycler 96 Real-Time PCR System using the AceQ qPCR SYBR Green Master Mix. […]"}, "rats' lenses (opacity)": {"system": "rats' lenses (opacity)", "assay": "Opacity distribution of lenses in sodium selenite-induced aged rats (ImageJ)", "details": "2 or 10 mg/kg/d by gavage once daily for 6 months, vs non-supplement group", "procedure": "Ten-day-old suckling rats (Sprague-Dawley, SD) were maintained under the barrier conditions in a temperature-controlled environment and fed a commercial mouse chow. All rat pups received a single subcutaneous injection of sodium selenite (20 μmol/kg body weight) on postpartum day 11. The opacity distribution (by surface plot and plot profile) of the rats' lenses were determined from the captured images by ImageJ analysis software after feeding 7 days. Testing opacity distribution aimed to show whether the formation of age-related lens degeneration is successful. The rats were then injected of sodium selenite every two weeks. And then these induced successfully rats were fed a commercial mouse chow for 15 months if succeeding. Then these induced successfully rats were randomly divided into three groups: (1) non-supplement group (Group 1, Con, n=10); (2) L-ergothioncine supplement group with low dosage (Group 2, L-ergothioneine, 2 mg/kg/d, n=10); (3) L-ergothioncine supplement group with high dosage (Group 3, L-ergothioneine, 10 mg/kg/d, n=10). All rats were administered L-ergothioneine for once daily by gavage in normal saline solution for 6 months. The opacity distribution (by surface plot and plot profile) of the rats' lenses were observed from the captured images by ImageJ analysis software at the end of this study."}, "[1]": {"system": "intracellular chronic reactive oxygen species (ROS) in lens epithelial cells (LEC)", "assay": "Cytosolic ROS level in isolated rat lenses (H2-DCFH-DA staining) after 6 months of supplementation", "details": "FIG. 1", "procedure": "Ten-day-old suckling rats (Sprague-Dawley, SD) were maintained under the barrier conditions in a temperature-controlled environment and fed a commercial mouse chow. All rat pups received a single subcutaneous injection of sodium selenite (20 μmol/kg body weight) on postpartum day 11. The opacity distribution (by surface plot and plot profile) of the rats' lenses were determined from the captured images by ImageJ analysis software after feeding 7 days. Testing opacity distribution aimed to show whether the formation of age-related lens degeneration is successful. The rats were then injected of sodium selenite every two weeks. And then these induced successfully rats were fed a commercial mouse chow for 15 months if succeeding.\nThen these induced successfully rats were randomly divided into three groups: (1) non-supplement group (Group 1, Con, n=10); (2) L-ergothioncine supplement group with low dosage (Group 2, L-ergothioneine, 2 mg/kg/d, n=10); (3) L-ergothioncine supplement group with high dosage (Group 3, L-ergothioneine, 10 mg/kg/d, n=10). All rats were administered L-ergothioneine for once daily by gavage in normal saline solution for 6 months. The opacity distribution (by surface plot and plot profile) of the rats' lenses were observed from the captured images by ImageJ analysis software at the end of this study. […]"}},
  "data": [
    {"compound": "C[N+](C)(C)[C@@H](Cc1c[nH]c(=S)[nH]1)C(=O)[O-]", "note": "[ergothioneine, L-ergothioneine]", "values": [
      {"measurement": "increase of Nrf2 mRNA level in LECs over placebo", "setting": "Nrf2; high-dose group, 10 mg/kg/d by gavage for 6 months", "value": "around 180%"},
      {"measurement": "increase of Nrf2 mRNA level in LECs compared to placebo", "setting": "Nrf2; low-dose group, 2 mg/kg/d by gavage for 6 months", "value": "~50", "unit": "%"},
      {"measurement": "opacity of lens (opacity distribution by surface plot and plot profile)", "setting": "rats' lenses (opacity)", "value": "effectively ameliorate or alleviate the opacity of lens"},
      {"measurement": "efficacy in ROS scavenging, high-dose group compared to low-dose group", "setting": "[1]; 10 mg/kg/d vs 2 mg/kg/d by gavage for 6 months", "value": "approximately double"},
      {"measurement": "reduction of intracellular chronic ROS levels in LEC compared to the non-supplementation group", "setting": "[1]; 2 and 10 mg/kg/d by gavage for 6 months", "value": "more than 25%"}
    ]}
  ]
}
